Legend:
Type in all cases: functional
M14 = assay: Growth inhibition of human M14 cells assessed as cell growth at 0.1 uM after 48 hrs by SRB assay relative to control; conditions: M14, 48 h, read-out: Activity
UO-31 = assay: Growth inhibition of human UO31 cells assessed as cell growth at 0.1 uM after 48 hrs by SRB assay relative to control; conditions: UO-31, 48 h, read-out: Activity
BT-549 [1] = assay: Growth inhibition of human BT549 cells assessed as cell growth at 0.01 uM after 48 hrs by SRB assay relative to control; conditions: BT-549, 48 h, read-out: Activity
Hs-578T = assay: Growth inhibition of human Hs 578T cells assessed as cell growth at 100 uM after 48 hrs by SRB assay relative to control; conditions: read-out: Activity
A498 = assay: Growth inhibition of human A498 cells assessed as cell growth at 1 uM after 48 hrs by SRB assay relative to control; conditions: A498, 48 h, read-out: Activity
SNB-75 [2] = assay: Growth inhibition of human SNB75 cells assessed as cell growth at 0.01 uM after 48 hrs by SRB assay relative to control; conditions: SNB-75, 48 h, read-out: Activity
BT-549 [3] = assay: Growth inhibition of human BT549 cells assessed as cell growth at 100 uM after 48 hrs by SRB assay relative to control; conditions: BT-549, 48 h, read-out: Activity
SK-MEL-5 = assay: Growth inhibition of human SK-MEL-5 cells assessed as cell growth at 1 uM after 48 hrs by SRB assay relative to control; conditions: SK-MEL-5, 48 h, read-out: Activity
OVCAR-3 [4] = assay: Growth inhibition of human OVCAR3 cells assessed as cell growth at 1 uM after 48 hrs by SRB assay relative to control; conditions: OVCAR-3, 48 h, read-out: Activity
OVCAR-5 = assay: Growth inhibition of human OVCAR5 cells assessed as cell growth at 0.01 uM after 48 hrs by SRB assay relative to control; conditions: OVCAR-5, 48 h, read-out: Activity
SNB-75 [5] = assay: Growth inhibition of human SNB75 cells assessed as cell growth at 10 uM after 48 hrs by SRB assay relative to control; conditions: SNB-75, 48 h, read-out: Activity
SNB-19 [6] = assay: Growth inhibition of human SNB19 cells assessed as cell growth at 0.01 uM after 48 hrs by SRB assay relative to control; conditions: SNB-19, 48 h, read-out: Activity
LOX IMVI = assay: Growth inhibition of human LOXIMVI cells assessed as cell growth at 100 uM after 48 hrs by SRB assay relative to control; conditions: read-out: Activity
SF-539 [7] = assay: Growth inhibition of human SF539 cells assessed as cell growth at 0.1 uM after 48 hrs by SRB assay relative to control; conditions: SF-539, 48 h, read-out: Activity
SNB-19 [8] = assay: Growth inhibition of human SNB19 cells assessed as cell growth at 0.1 uM after 48 hrs by SRB assay relative to control; conditions: SNB-19, 48 h, read-out: Activity
OVCAR-3 [9] = assay: Growth inhibition of human OVCAR3 cells assessed as cell growth at 10 uM after 48 hrs by SRB assay relative to control; conditions: OVCAR-3, 48 h, read-out: Activity
K562 = assay: Cytotoxicity against human K562 cells assessed as growth inhibition after 48 hrs by SRB assay; conditions: K562, 48 h
NCI/ADR-RES [10] = assay: Growth inhibition of human NCI-ADR-RES cells assessed as cell growth at 10 uM after 48 hrs by SRB assay relative to control; conditions: read-out: Activity
SNB-19 [11] = assay: Growth inhibition of human SNB19 cells assessed as cell growth at 1 uM after 48 hrs by SRB assay relative to control; conditions: SNB-19, 48 h, read-out: Activity
NCI-H522 = assay: Growth inhibition of human NCI-H522 cells assessed as cell growth at 100 uM after 48 hrs by SRB assay relative to control; conditions: NCI-H522, 48 h, read-out: Activity
OVCAR-4 = assay: Growth inhibition of human OVCAR4 cells assessed as cell growth at 0.01 uM after 48 hrs by SRB assay relative to control; conditions: OVCAR-4, 48 h, read-out: Activity
MDA-MB-435 = assay: Growth inhibition of human MDA-MB-435 cells assessed as cell growth at 1 uM after 48 hrs by SRB assay relative to control; conditions: MDA-MB-435, 48 h, read-out: Activity
CCRF-CEM = assay: Growth inhibition of human CCRF-CEM cells assessed as cell growth at 10 uM after 48 hrs by SRB assay relative to control; conditions: read-out: Activity
SK-MEL-2 = assay: Growth inhibition of human SK-MEL-2 cells assessed as cell growth at 1 uM after 48 hrs by SRB assay relative to control; conditions: SK-MEL-2, 48 h, read-out: Activity
NCI/ADR-RES [12] = assay: Growth inhibition of human NCI-ADR-RES cells assessed as cell growth at 0.1 uM after 48 hrs by SRB assay relative to control; conditions: read-out: Activity
SF-268 = assay: Growth inhibition of human SF268 cells assessed as cell growth at 0.01 uM after 48 hrs by SRB assay relative to control; conditions: SF-268, 48 h, read-out: Activity
PC-3 = assay: Growth inhibition of human PC3 cells assessed as cell growth at 100 uM after 48 hrs by SRB assay relative to control; conditions: PC-3, 48 h, read-out: Activity
DU-145 = assay: Growth inhibition of human DU145 cells assessed as cell growth at 1 uM after 48 hrs by SRB assay relative to control; conditions: DU-145, 48 h, read-out: Activity
OVCAR-8 = assay: Growth inhibition of human OVCAR8 cells assessed as cell growth at 100 uM after 48 hrs by SRB assay relative to control; conditions: OVCAR-8, 48 h, read-out: Activity
SF-539 [13] = assay: Cytotoxicity against human SF539 cells assessed as growth inhibition after 48 hrs by SRB assay; conditions: SF-539, 48 h
U-251 = assay: Growth inhibition of human U251 cells assessed as cell growth at 1 uM after 48 hrs by SRB assay relative to control; conditions: U-251, 48 h, read-out: Activity
SF-295 = assay: Cytotoxicity against human SF295 cells assessed as growth inhibition after 48 hrs by SRB assay; conditions: SF-295, 48 h
SK-OV-3 = assay: Growth inhibition of human SKOV3 cells assessed as cell growth at 10 uM after 48 hrs by SRB assay relative to control; conditions: SK-OV-3, 48 h, read-out: Activity
[14] = read-out: LC50 (the source's name)
[15] = read-out: pLC50 (the source's name) (converted)

`COc1ccc2c(c1)CCc1n[nH]c(-c3cc(OC)c(OC)c(OC)c3)c1-2` was tested, and the growth at 0.1 µM (M14) was 1%, the growth at 0.1 µM (UO-31) was 30% and the growth at 0.01 µM (BT-549 [1]) was 4%. The growth at 100 µM (Hs-578T) was -18%, the growth at 1 µM (A498) was -16% and the growth at 0.01 µM (SNB-75 [2]) was 12%. For the same compound, the growth at 100 µM (BT-549 [3]) was -36%, the growth at 1 µM (SK-MEL-5) was -24% and the growth at 1 µM (OVCAR-3 [4]) was 17%. The growth at 0.01 µM (OVCAR-5) was 56%, the growth at 10 µM (SNB-75 [5]) was 22% and the growth at 0.01 µM (SNB-19 [6]) was 33%. It also gave a growth at 100 µM (LOX IMVI) of -91%, a growth at 0.1 µM (SF-539 [7]) of -6% and a growth at 0.1 µM (SNB-19 [8]) of 33%. The growth at 10 µM (OVCAR-3 [9]) was 12%, the GI50 (K562; read-out: GI50) was under 0.01 µM and the CC50 (K562; [14]) was over 100 µM. It also gave a TGI (K562; read-out: TGI) of over 100 µM, a GI50 (K562; read-out: pGI50 (converted)) of under 0.01 µM and a CC50 (K562; [15]) of over 100 µM. It also gave a TGI (K562; read-out: pTGI) of over 100 µM, a growth at 10 µM (NCI/ADR-RES [10]) of -11% and a growth at 1 µM (SNB-19 [11]) of 34%. The growth at 100 µM (NCI-H522) was -66%, the growth at 0.01 µM (OVCAR-4) was 41% and the growth at 1 µM (MDA-MB-435) was -35%. For the same compound, the growth at 10 µM (CCRF-CEM) was 41%, the growth at 1 µM (SK-MEL-2) was 42% and the growth at 0.1 µM (NCI/ADR-RES [12]) was -21%. For the same compound, the growth at 0.01 µM (SF-268) was 39%, the growth at 100 µM (PC-3) was -43% and the growth at 1 µM (DU-145) was 12%. It also gave a growth at 100 µM (OVCAR-8) of -38%, a GI50 (SF-539 [13]; read-out: GI50) of under 0.01 µM and a CC50 (SF-539 [13]; [14]) of 29.9 µM. It also gave a TGI (SF-539 [13]; read-out: TGI) of under 0.01 µM, a GI50 (SF-539 [13]; read-out: pGI50 (converted)) of under 0.01 µM and a CC50 (SF-539 [13]; [15]) of 30.2 µM. It also gave a TGI (SF-539 [13]; read-out: pTGI) of under 0.01 µM, a growth at 1 µM (U-251) of 8% and a GI50 (SF-295; read-out: GI50) of under 0.01 µM. It also gave a CC50 (SF-295; [14]) of 64.5 µM, a TGI (SF-295; read-out: TGI) of 3.21 µM and a GI50 (SF-295; read-out: pGI50 (converted)) of under 0.01 µM. It also gave a CC50 (SF-295; [15]) of 64.6 µM, a TGI (SF-295; read-out: pTGI (converted)) of 3.24 µM and a growth at 10 µM (SK-OV-3) of -13%.

Reference: ChEMBL document CHEMBL4346757, “Synthesis and biological evaluation of 7-methoxy-1-(3,4,5-trimethoxyphenyl)-4,5-dihydro-2H-benzo[e]indazoles as new colchicine site inhibitors” (Bioorg Med Chem Lett, 2019)
